The results in this text go back to US4229436A, “Antibiotic G-6302” (Takeda Chemical Industries, Ltd., priority 1977, dated 1980).

Converted amounts (≈) assume the structure as drawn. Bounds are passed on as bounds.

The nature of data set [1]: Stability in aqueous solution. It counts as physicochemical.
The next data set in a line: Solubility in solvents. Type of data set: physicochemical.
The next data set has as its system Klebsiella pneumoniae. Kind of data set: Protection of mice infected with Klebsiella pneumoniae. Type of data set: in vivo.
The subject of the next data set is Escherichia coli. Kind of data set: Protection of mice infected with Escherichia coli. Type of data set: in vivo.
A short description of data set [2]: Basicity, neutrality or acidity. It counts as physicochemical.
The next data set relates to gram-negative bacteria. As to the kind of experiment: Antimicrobial spectrum, summary in words. Type of data set: cell-based. The conditions noted are these: summary of Table 3. From the text: (§1) The biological characteristics of G-6302 are as follows. The antimicrobial spectra of G-6302 and its sodium salt against various microorganisms are shown in Table 3 (agar plate dilution method.)

In a further data set the test system is gram-positive bacteria. As to the kind of experiment: Antimicrobial spectrum, summary in words. It counts as cell-based. The conditions noted are these: summary of Table 3.
Excerpt: as §1

For data set [3], the system named is Aspergillus niger IFO 4066. As to the kind of experiment: Antimicrobial spectrum, agar plate dilution method. The following applies: IFO4066, Nutrient agar containing 1% of glucose, read-out: Minimal inhibitory concentration. It counts as cell-based.
Excerpt: as §1
(§2) *Medium = Nutrient agar containing 1% of glucose

For data set [4], the system named is Penicillium chrysogenum IFO 4626. Kind of data set: Antimicrobial spectrum, agar plate dilution method. Type of data set: cell-based. The following applies: IFO4626, Nutrient agar containing 1% of glucose, read-out: Minimal inhibitory concentration.
Excerpt: as §1, §2

The subject of data set [5] is Saccharomyces cerevisiae IFO 0209. As to the kind of experiment: Antimicrobial spectrum, agar plate dilution method. The conditions noted are these: IFO0209, Nutrient agar containing 1% of glucose, read-out: Minimal inhibitory concentration. Type of data set: cell-based.
Excerpt: as §1, §2

For data set [6], the system named is Candida albicans IFO 0583. Kind of data set: Antimicrobial spectrum, agar plate dilution method. It counts as cell-based. The conditions noted are these: IFO0583, Nutrient agar containing 1% of glucose, read-out: Minimal inhibitory concentration.
Excerpt: as §1, §2

Data set [7] deals with Proteus vulgaris IFO 3988. Kind of data set: Antimicrobial spectrum, agar plate dilution method. It counts as cell-based. The following applies: IFO3988, Trypticasesoy-broth-agar, read-out: Minimal inhibitory concentration.
Excerpt: as §1
(§3) Medium = Trypticasesoy-broth-agar

In a further data set the test system is Escherichia coli NIHJ. As to the kind of experiment: Antimicrobial spectrum, agar plate dilution method. It counts as cell-based. The conditions noted are these: Trypticasesoy-broth-agar, read-out: Minimal inhibitory concentration.
Excerpt: as §1, §3

Data set [8] concerns Serratia marcescens IFO 12648. As to the kind of experiment: Antimicrobial spectrum, agar plate dilution method. It counts as cell-based. The conditions noted are these: IFO12648, Trypticasesoy-broth-agar, read-out: Minimal inhibitory concentration.
Excerpt: as §1, §3

In data set [9] the test system is Proteus morganii IFO 3168. As to the kind of experiment: Antimicrobial spectrum, agar plate dilution method. Type of data set: cell-based. The following applies: Morganella morganii, IFO3168, Trypticasesoy-broth-agar, read-out: Minimal inhibitory concentration.
Excerpt: as §1, §3

Data set [10] deals with Streptococcus pyogenes E-14. Kind of data set: Antimicrobial spectrum, agar plate dilution method. It counts as cell-based. The conditions noted are these: E14, Trypticasesoy-broth-agar, read-out: Minimal inhibitory concentration.
Excerpt: as §1, §3

The test system of data set [11] is Corynebacterium diphtheriae Toronto. As to the kind of experiment: Antimicrobial spectrum, agar plate dilution method. Type of data set: cell-based. The following applies: Trypticasesoy-broth-agar, read-out: Minimal inhibitory concentration.
Excerpt: as §1, §3

The subject of data set [12] is Pseudomonas aeruginosa U-31. As to the kind of experiment: Antimicrobial spectrum, agar plate dilution method. The conditions noted are these: U31, Trypticasesoy-broth-agar, read-out: Minimal inhibitory concentration. Type of data set: cell-based.
Excerpt: as §1, §3

The subject of data set [13] is Bacillus subtilis PCI 219. As to the kind of experiment: Antimicrobial spectrum, agar plate dilution method. It counts as cell-based. The following applies: PCI219, Trypticasesoy-broth-agar, read-out: Minimal inhibitory concentration.
Excerpt: as §1, §3

The subject of the next data set is Klebsiella pneumoniae DT. As to the kind of experiment: Antimicrobial spectrum, agar plate dilution method. It counts as cell-based. The conditions noted are these: Trypticasesoy-broth-agar, read-out: Minimal inhibitory concentration.
Excerpt: as §1, §3

Data set [14] concerns Proteus mirabilis IFO 3849. Kind of data set: Antimicrobial spectrum, agar plate dilution method. Type of data set: cell-based. The following applies: IFO3849, Trypticasesoy-broth-agar, read-out: Minimal inhibitory concentration.
Excerpt: as §1, §3

The next data set relates to Shigella flexneri EW-10. Kind of data set: Antimicrobial spectrum, agar plate dilution method. Type of data set: cell-based. The following applies: EW10, Trypticasesoy-broth-agar, read-out: Minimal inhibitory concentration.
Excerpt: as §1, §3

Another data set deals with Escherichia coli T-7. As to the kind of experiment: Antimicrobial spectrum, agar plate dilution method. Type of data set: cell-based. The conditions noted are these: T7, Trypticasesoy-broth-agar, read-out: Minimal inhibitory concentration.
Excerpt: as §1, §3

Data set [15] relates to Staphylococcus aureus FDA 209P. As to the kind of experiment: Antimicrobial spectrum, agar plate dilution method. The following applies: FDA209P, Trypticasesoy-broth-agar, read-out: Minimal inhibitory concentration. It counts as cell-based.
Excerpt: as §1, §3

A short description of data set [16]: Acute toxicity in mice, intravenous.
For data set [17], the system named is Salmonella typhosa Boxhill 58. As to the kind of experiment: Antimicrobial spectrum, agar plate dilution method. Type of data set: cell-based. The following applies: Salmonella enterica, read-out: Minimal inhibitory concentration.
Excerpt: as §1, §3

For data set [18] the following is noted: mouse, in vivo.
[19] abbreviates: listed as sodium salt of G-6302.

On to `COC1(NC(=O)C(C)NC(=O)CCC(N)C(=O)O)CN(S(=O)(=O)O)C1=O` (stereo not drawn) [Antibiotic G-6302], for which, in data set [1] (over pH 8.5), the “Stability over pH 8.5” value is listed as “unstable”. The “Stability in aqueous solution” value in data set [1] (pH 3-pH 7, 60° C., 10 minutes) is “Stable”. Also, in “Solubility in solvents”, the Solubility in acetone entry is “sparingly soluble”. Besides, the Solubility in benzene result in the data set “Solubility in solvents” (benzene) was “Insoluble”. Moreover, the Solubility in chloroform entry in the data set “Solubility in solvents” (chloroform) is listed as “Insoluble”. In addition, in “Solubility in solvents” (diethyl ether), the “Solubility in diethyl ether” value was “Insoluble”. Moreover, the Solubility in dimethylsulfoxide entry in the data set “Solubility in solvents” (dimethylsulfoxide) was “soluble”. Moreover, in the data set “Solubility in solvents” (ethanol), the Solubility in ethanol entry is given as “sparingly soluble”. In addition, in the data set “Solubility in solvents” (ethyl acetate), the “Solubility in ethyl acetate” value was “Insoluble”. Further, in “Solubility in solvents” (hexane), the Solubility in hexane entry is “Insoluble”. Besides, the Solubility in methanol result in the data set “Solubility in solvents” is “soluble”. Moreover, the “Solubility in petroleum ether” value in “Solubility in solvents” (petroleum ether) is on record as “Insoluble”. The Solubility in pyridine entry in the data set “Solubility in solvents” (pyridine) is “sparingly soluble”. For the same compound, the Solubility in water entry in “Solubility in solvents” (water) is reported as “readily soluble”. The “protecting action on infected mice” value in the data set on Klebsiella pneumoniae (oral dose of 100 mg/kg), with Klebsiella pneumoniae (subcutaneous dose of 10 mg/kg), in the data set with Escherichia coli (oral dose of 100 mg/kg) and with Escherichia coli (subcutaneous dose of 10 mg/kg) was “protecting action” throughout. The “Basicity, neutrality or acidity” value in [2] is listed as “Acid”. For the same compound, the “antimicrobial activity against gram-negative bacteria” value is given as “inhibitory” with gram-negative bacteria and “mainly active against gram-negative bacteria” with gram-negative bacteria (listed as Antibiotic G-6302). The “antimicrobial activity against gram-positive bacteria” value with gram-positive bacteria is “inhibitory”; in the data set with gram-positive bacteria (listed as Antibiotic G-6302) it was “also active against some gram-positive bacteria”. Also, the MIC in data set [3] is over 100 µg/mL; in data set [4], over 100 µg/mL; in [5], over 100 µg/mL; in data set [6], over 100 µg/mL; in [7] it was 100 µg/mL (≈ 252 µM); with Escherichia coli NIHJ it was 25 µg/mL (≈ 63.1 µM). The MIC is 100 µg/mL (≈ 252 µM) in data set [8]; 100 µg/mL (≈ 252 µM) in data set [9]; over 100 µg/mL in [10]; 12.5 µg/mL (≈ 31.5 µM) in data set [11]; over 100 µg/mL in data set [12]; 100 µg/mL (≈ 252 µM) in data set [13]. Further, the MIC in the data set on Klebsiella pneumoniae DT is 12.5 µg/mL (≈ 31.5 µM); in data set [14], 25 µg/mL (≈ 63.1 µM); in the data set with Shigella flexneri EW-10, 25 µg/mL (≈ 63.1 µM); with Escherichia coli T-7, 25 µg/mL (≈ 63.1 µM); in data set [15], over 100 µg/mL.
As for `COC1(NC(=O)C(C)NC(=O)CCC(N)C(=O)O)CN(S(=O)(=O)O)C1=O` (stereo not drawn) [G-6302 . Na], in the data set “Solubility in solvents” (setting [19]), the Solubility in acetone entry is on record as “Insoluble” and the Solubility in methanol entry is given as “sparingly soluble”. In [16], the acute toxicity entry is “low”. The MIC in data set [17] was 12.5 µg/mL (≈ 31.5 µM). Besides, the deaths entry in data set [18] is given as “no deaths”.
For the compound `COC1(NC(=O)C(C)NC(=O)CCC(N)C(=O)O)CN(S(=O)(=O)O)C1=O` (stereo not drawn) [crystals of G-6302], the “stability (compared with product of Example 1)” value in data set [1] (crystals of Example 5) is on record as “the same as those of the product obtained in Example 1”. The “solubility in solvents (compared with product of Example 1)” value in the data set “Solubility in solvents” (crystals of Example 5) was “the same as those of the product obtained in Example 1”. Besides, in data set [2] (crystals of Example 5), the “basicity, neutrality or acidity (compared with product of Example 1)” value is reported as “the same as those of the product obtained in Example 1”.
